Read-outs that look alike come from different tables or passages of the source.

In assay [1] the test system is WT S. cerevisiae strain BY4741. Description: MIC in compound library screening assay, WT yeast. It counts as cell-based. Conditions: for MIC: Saccharomyces cerevisiae. On the procedure:
(§1) The compound library is a combination of synthetic compounds from Enamine (Kyiv, Ukraine) and Life Chemicals Inc. (Burlington, ON, Canada) and natural products from the Institute of Medicinal Biotechnology. We used WT, chs3∆, and fks1∆ yeast strains to screen new antifungal agents. The screening assays were performed in 96-well plates in a final volume of 200 μL. Fresh yeast cells (OD600 = 0.8) were diluted to 10^5 CFU/mL in YPD medium. We added 198 μL of diluted culture and 2 μL of compounds into each well, and the final concentration of compounds was 100 μg/mL with 1% DMSO. The yeast cells were incubated at 30 °C for 24 hours to assess the growth. For the compounds that inhibited the growth of all three yeast strains, they were serially diluted to determine the minimal inhibit concentration (MIC) with the same method. MIC endpoints were defined as the lowest concentration of drugs that cause a 90% decrease in growth compared to the drug-free control (MIC90).

Assay [2] deals with chs3∆ (chs3::KanMX in BY4741). Description: MIC in compound library screening assay, chs3∆ yeast. It counts as cell-based, S. cerevisiae. Conditions: for MIC: Saccharomyces cerevisiae, 24 h. On the procedure:
as §1

Assay [3] concerns fks1∆ (fks1::KanMX in BY4741). Nature of the assay: MIC in compound library screening assay, fks1∆ yeast. The conditions noted are these: for MIC: Saccharomyces cerevisiae, 24 h, read-out: MIC, fks1∆. It counts as cell-based, S. cerevisiae. On the procedure:
as §1

The next assay deals with C. albicans ATCC10231. Description: Checkerboard assay, synergy with caspofungin. It counts as cell-based. Conditions: Candida albicans. On the procedure:
(§2) Fresh cell cultures of WT S. cerevisiae and C. albicans ATCC10231 (OD600 = 0.8) were diluted to 10^4 CFU/mL in YPD medium. The in vitro synergistic and antagonistic effects of compounds were determined using checkerboard assay. MIC endpoints were defined as the lowest concentration of drugs, causing 80% decrease in viability compared to the drug-free control (MIC80). The calculation and interpretation of the fractional inhibitory concentration index (FICI) were carried out by referring to the document standards. FICI = (MIC of drug A in combination) / (MIC of drug A alone) + (MIC of drug B in combination) / (MIC of drug B alone). FIC ≤0.5 was considered as a synergistic effect, and >2 was considered as antagonism.

The subject of another assay is WT S. cerevisiae. Description: Checkerboard assay, synergy with caspofungin. It counts as cell-based. Conditions: for MIC: Saccharomyces cerevisiae, read-out: MIC Alone. On the procedure: as §2
The test system of a further assay is C. albicans. Nature of the assay: MIC of CFW in the presence of compounds, checkerboard assay. It counts as cell-based, Candida albicans. On the procedure:
as §2

In the next assay the test system is budding yeast. Described as above. It counts as cell-based, S. cerevisiae. Conditions: budding yeast, CFW alone. On the procedure: as §2

As to `C[C@@H]([C@H](N)C(=O)N[C@H](C(=O)O)[C@H]1O[C@@H](n2ccc(=O)[nH]c2=O)[C@H](O)[C@@H]1O)[C@H](O)c1ccc(O)cn1` [Nikkomycin, nikkomycin Z, reference compound], the MIC was no less than 200 µg/mL in assay [1] (24 h, read-out: MIC, WT, WT BY4741, YPD, 30 °C, 24 hours, MIC90); no less than 200 µg/mL in assay [2] (read-out: MIC, chs3∆, chs3∆ mutant, YPD, 30 °C, 24 hours, MIC90); 25 µg/mL in assay [3]; 12.5 µg/mL with C. albicans ATCC10231 (ATCC10231, read-out: MIC Alone); greater than 100 µg/mL with WT S. cerevisiae; 100 µg/mL with C. albicans (Candida albicans, read-out: MIC of CFW in the presence of nikkomycin Z). Moreover, in assay [1] (WT BY4741, YPD, 30 °C, 24 hours, MIC90), the “MIC, WT” value is greater than 200 µg/mL. Also, the “MIC, chs3∆” value in assay [2] (chs3∆ mutant, YPD, 30 °C, 24 hours, MIC90) is greater than 200 µg/mL. Moreover, the “MIC, fks1∆” value in assay [3] (fks1∆ mutant, YPD, 30 °C, 24 hours, MIC90) came to 25 µg/mL. For the same compound, the “MIC of Caspofungin Combination” value was 0.00625 µg/mL in the assay on C. albicans ATCC10231 (MIC of caspofungin in combination with the named compound, MIC80) and 0.0075 µg/mL with WT S. cerevisiae (S. cerevisiae, MIC of caspofungin in combination with the named compound, MIC80). Also, the “MIC Combination” value is 3.125 µg/mL in the assay with C. albicans ATCC10231 (MIC of the compound in combination with caspofungin, MIC80) and 12.5 µg/mL in the assay with WT S. cerevisiae (S. cerevisiae, MIC of the compound in combination with caspofungin, MIC80). Besides, the FICI with WT S. cerevisiae (S. cerevisiae, fractional inhibitory concentration index with caspofungin, ≤0.5 synergistic) is given as less than 0.5.

Consider `CC[C@H](C)C[C@H](C)CCCCCCCCC(=O)N[C@H]1C[C@@H](O)[C@@H](NCCN)NC(=O)[C@@H]2[C@@H](O)CCN2C(=O)[C@H]([C@H](O)CCN)NC(=O)[C@H]([C@H](O)[C@@H](O)c2ccc(O)cc2)NC(=O)[C@@H]2C[C@@H](O)CN2C(=O)[C@H]([C@@H](C)O)NC1=O` [Caspofungin, caspofungin], for which the minimum inhibitory concentration (MIC) in assay [1] (WT BY4741, YPD, 30 °C, 24 hours, MIC90, read-out: MIC, WT) came out at 0.03 µg/mL; in assay [2] (read-out: MIC, chs3∆), 0.00375 µg/mL; in assay [3], 0.015 µg/mL; with C. albicans ATCC10231 (ATCC10231, compound alone, MIC80, read-out: MIC Alone) it was 0.025 µg/mL; in the assay on WT S. cerevisiae (S. cerevisiae, compound alone, MIC80) it was 0.03 µg/mL.

For the compound `O=S(=O)([O-])c1cc(Nc2nc(Nc3ccccc3)nc(N(CCO)CCO)n2)ccc1/C=C/c1ccc(Nc2nc(Nc3ccccc3)nc(N(CCO)CCO)n2)cc1S(=O)(=O)[O-].[Na+].[Na+]` [CFW, Calcofluor White M2R, reference compound], the “MIC of CFW” value came out at 6.25 µg/mL with budding yeast and 12.5 µg/mL in the assay on C. albicans (C. albicans, absence of chitin synthesis inhibitor).

These data come from publication PMC6749524, “Identification of New Antifungal Agents Targeting Chitin Synthesis by a Chemical-Genetic Method” (Molecules, 2019).
